Test results published in patent publication US20220041606A1, “POSITIVE ALLOSTERIC MODULATORS OF THE MUSCARINIC ACETYLCHOLINE RECEPTOR M1” (Vanderbilt University, priority 2020, published 2022).

Key:
human mAChR M1 [1] = molecular target: T1, human mAChR M1 (Homo sapiens, UniProt P11229); test: mAChR M1 cell-based functional assay (calcium mobilization), agonist activity upon compound addition; settings: CHO-K1 cells expressing hM1; for EC50: compound alone, before acetylcholine addition; for Emax: relative to the maximum for acetylcholine
T1 construct: host or cells: CHO-K1 cells (ATCC), stably transfected using Lipofectamine2000
T1 sequence (P11229 1-460): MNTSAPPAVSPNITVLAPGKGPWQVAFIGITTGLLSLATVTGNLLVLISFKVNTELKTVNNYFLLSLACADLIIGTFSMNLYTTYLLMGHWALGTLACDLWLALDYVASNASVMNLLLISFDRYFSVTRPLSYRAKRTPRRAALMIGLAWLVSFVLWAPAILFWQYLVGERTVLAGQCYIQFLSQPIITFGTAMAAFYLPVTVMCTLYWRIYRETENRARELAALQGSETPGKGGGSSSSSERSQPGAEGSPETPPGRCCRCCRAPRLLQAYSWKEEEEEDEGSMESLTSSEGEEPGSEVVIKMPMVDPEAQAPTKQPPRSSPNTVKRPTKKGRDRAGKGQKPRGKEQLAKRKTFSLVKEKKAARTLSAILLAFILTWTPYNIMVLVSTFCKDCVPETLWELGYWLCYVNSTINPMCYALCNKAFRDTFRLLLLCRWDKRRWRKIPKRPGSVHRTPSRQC
How it was run: (§1)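 Fluorescence ratio calcium read-out (Fluo-4 AM, FDSS 6000) in human M1-expressing CHO-K1 cells. Agonist activity taken as concentration-dependent rise after compound addition; potentiation as enhancement of a subsequent EC20 acetylcholine challenge. Curves from 11-point threefold dilutions fitted by four-parameter logistic; Emax expressed versus acetylcholine maximum.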

human mAChR M1 [2] = molecular target: T1, human mAChR M1; test: mAChR M1 cell-based functional assay (calcium mobilization), PAM activity: increase in the EC20 acetylcholine response; settings: CHO-K1 cells expressing hM1; potentiation of EC20 acetylcholine response
How it was run: as §1

EC50 (human mAChR M1 [1]) | Emax (human mAChR M1 [1]) | EC50 (human mAChR M1 [2]) | Emax (human mAChR M1 [2]) | SMILES
> 10 µM | < 5% | 5.89 µM | 27% | Cc1cn2c(=O)n(Cc3c(F)cc(-c4cccc5nn(C)cc45)cc3F)cc(C(=O)N[C@H]3CCCC[C@@H]3O)c2n1 [Compound B30, 6-(2,6-difluoro-4-(2-methyl-2H-indazol-4-yl)benzyl)-N-((1S,2S)-2-hydroxycyclohexyl)-2-methyl-5-oxo-5,6-dihydroimidazo[1,2-c]pyrimidine-8-carboxamide]
> 10 µM | 6% | 1.13 µM | 82% | Cn1nccc1-c1ccc(Cn2cc(C(=O)N[C@H]3CCOC[C@@H]3O)c3nccn3c2=O)c(F)c1 [Compound B31, 6-(2-fluoro-4-(1-methyl-1H-pyrazol-5-yl)benzyl)-N-((3R,4S)-3-hydroxytetrahydro-2H-pyran-4-yl)-5-oxo-5,6-dihydroimidazo[1,2-c]pyrimidine-8-carboxamide]
> 10 µM | < 5% | 0.89 µM | 80% | Cn1nccc1-c1ccc(Cn2cc(C(=O)N[C@H]3CCCC[C@@H]3O)c3nccn3c2=O)c(F)c1 [Compound B32, 6-(2-fluoro-4-(1-methyl-1H-pyrazol-5-yl)benzyl)-N-((1S,2S)-2-hydroxycyclohexyl)-5-oxo-5,6-dihydroimidazo[1,2-c]pyrimidine-8-carboxamide]
> 10 µM | < 5% | 2.23 µM | 57% | Cn1nccc1-c1ccc(Cn2cc(C(=O)N[C@H]3CCC[C@@H]3O)c3nccn3c2=O)c(F)c1 [Compound B33, 6-(2-fluoro-4-(1-methyl-1H-pyrazol-5-yl)benzyl)-N-((1S,2S)-2-hydroxycyclopentyl)-5-oxo-5,6-dihydroimidazo[1,2-c]pyrimidine-8-carboxamide]
> 10 µM | < 5% | ≥ 10 µM | 44% | Cc1cnn(C)c1-c1ccc(Cn2cc(C(=O)N[C@H]3CCOC[C@@H]3O)c3nccn3c2=O)c(F)c1 [Compound B34, 6-(4-(1,4-dimethyl-1H-pyrazol-5-yl)-2-fluorobenzyl)-N-((3R,4S)-3-hydroxytetrahydro-2H-pyran-4-yl)-5-oxo-5,6-dihydroimidazo[1,2-c]pyrimidine-8-carboxamide]
> 10 µM | < 5% | 7.02 µM | 44% | Cc1cnn(C)c1-c1ccc(Cn2cc(C(=O)N[C@H]3CCCC[C@@H]3O)c3nccn3c2=O)c(F)c1 [Compound B35, 6-(4-(1,4-dimethyl-1H-pyrazol-5-yl)-2-fluorobenzyl)-N-((1S,2S)-2-hydroxycyclohexyl)-5-oxo-5,6-dihydroimidazo[1,2-c]pyrimidine-8-carboxamide]
> 10 µM | < 5% | 1.25 µM | 78% | Cn1nccc1-c1cc(F)c(Cn2cc(C(=O)N[C@H]3CCOC[C@@H]3O)c3nccn3c2=O)c(F)c1 [Compound B36, 6-(2,6-difluoro-4-(1-methyl-1H-pyrazol-5-yl)benzyl)-N-((3R,4S)-3-hydroxytetrahydro-2H-pyran-4-yl)-5-oxo-5,6-dihydroimidazo[1,2-c]pyrimidine-8-carboxamide]
 | 8% | 0.25 µM | 65% | Cn1ccc(-c2ccc(Cn3cc(C(=O)N[C@H]4CCCC[C@@H]4O)c4ncn(C)c4c3=O)c(F)c2)n1 [Compound C1, 5-(2-Fluoro-4-(1-methyl-1H-pyrazol-3-yl)benzyl)-N-((1S,2S)-2-hydroxycyclohexyl)-3-methyl-4-oxo-4,5-dihydro-3H-imidazo[4,5-c]pyridine-7-carboxamide]
> 10 µM | < 5% | 0.6 µM | 45% | Cn1ccc(-c2ccc(Cn3cc(C(=O)N[C@H]4CCC[C@@H]4O)c4ncn(C)c4c3=O)c(F)c2)n1 [Compound C2, 5-(2-fluoro-4-(1-methyl-1H-pyrazol-3-yl)benzyl)-N-((1S,2S)-2-hydroxycyclopentyl)-3-methyl-4-oxo-4,5-dihydro-3H-imidazo[4,5-c]pyridine-7-carboxamide]
> 10 µM | < 5% | 0.31 µM | 60% | Cn1ccc(-c2ccc(Cn3cc(C(=O)N[C@H]4CCCCC[C@@H]4O)c4ncn(C)c4c3=O)c(F)c2)n1 [Compound C3, 5-(2-fluoro-4-(1-methyl-1H-pyrazol-3-yl)benzyl)-N-((1S,2S)-2-hydroxycycloheptyl)-3-methyl-4-oxo-4,5-dihydro-3H-imidazo[4,5-c]pyridine-7-carboxamide]
> 10 µM | < 5% | 0.31 µM | 58% | Cn1cc2c(-c3cc(F)c(Cn4cc(C(=O)N[C@H]5CCOC[C@@H]5O)c5ncn(C)c5c4=O)c(F)c3)cccc2n1 [Compound C4, 5-(2,6-difluoro-4-(2-methyl-2H-indazol-4-yl)benzyl)-N-((3R,4S)-3-hydroxytetrahydro-2H-pyran-4-yl)-3-methyl-4-oxo-4,5-dihydro-3H-imidazo[4,5-c]pyridine-7-carboxamide]
> 10 µM | < 5% | 0.17 µM | 43% | Cn1cnc2c(C(=O)N[C@H]3CCCC[C@@H]3O)cn(Cc3ccc(-n4cccn4)cc3)c(=O)c21 [Compound C6, 5-(4-(1H-pyrazol-1-yl)benzyl)-N-((1S,2S)-2-hydroxycyclohexyl)-3-methyl-4-oxo-4,5-dihydro-3H-imidazo[4,5-c]pyridine-7-carboxamide]
> 10 µM | < 5% | > 10 µM | 25% | CC1(C)COCCC1NC(=O)c1cn(Cc2ccc(-n3cccn3)cc2)c(=O)c2ccoc12 (centres unmarked) [Compound D1, 5-(4-(1H-pyrazol-1-yl)benzyl)-N-(3,3-dimethyltetrahydro-2H-pyran-4-yl)-4-oxo-4,5-dihydrofuro[3,2-c]pyridine-7-carboxamide]
> 10 µM | < 5% | > 10 µM | 57% | O=C(N[C@H]1CCOC[C@@H]1O)c1cn(Cc2ccc(-n3cccn3)cc2)c(=O)c2ccoc12 [Compound D2, 5-(4-(1H-pyrazol-1-yl)benzyl)-N-((3R,4S)-3-hydroxytetrahydro-2H-pyran-4-yl)-4-oxo-4,5-dihydrofuro[3,2-c]pyridine-7-carboxamide]
> 10 µM | < 5% | 5.12 µM | 62% | O=C(N[C@H]1CCCC[C@@H]1O)c1cn(Cc2ccc(-n3cccn3)cc2)c(=O)c2ccoc12 [Compound D3, 5-(4-(1H-pyrazol-1-yl)benzyl)-N-((1S,2S)-2-hydroxycyclohexyl)-4-oxo-4,5-dihydrofuro[3,2-c]pyridine-7-carboxamide]
> 10 µM | < 5% | > 10 µM | 34% | O=C(N[C@H]1CCC[C@@H]1O)c1cn(Cc2ccc(-n3cccn3)cc2)c(=O)c2ccoc12 [Compound D4, 5-(4-(1H-pyrazol-1-yl)benzyl)-N-((1S,2S)-2-hydroxycyclopentyl)-4-oxo-4,5-dihydrofuro[3,2-c]pyridine-7-carboxamide]
> 10 µM | < 5% | > 10 µM | 58% | O=C(N[C@H]1CCCCC[C@@H]1O)c1cn(Cc2ccc(-n3cccn3)cc2)c(=O)c2ccoc12 [Compound D5, 5-(4-(1H-pyrazol-1-yl)benzyl)-N-((1S,2S)-2-hydroxycycloheptyl)-4-oxo-4,5-dihydrofuro[3,2-c]pyridine-7-carboxamide]
> 10 µM | < 5% | > 10 µM | 68% | Cn1ccc(-c2ccc(Cn3cc(C(=O)N[C@H]4CCOC[C@@H]4O)c4occc4c3=O)c(F)c2)n1 [Compound D6, 5-(2-fluoro-4-(1-methyl-1H-pyrazol-3-yl)benzyl)-N-((3R,4S)-3-hydroxytetrahydro-2H-pyran-4-yl)-4-oxo-4,5-dihydrofuro[3,2-c]pyridine-7-carboxamide]
> 10 µM | < 5% | 6.05 µM | 82% | Cn1ccc(-c2ccc(Cn3cc(C(=O)N[C@H]4CCCC[C@@H]4O)c4occc4c3=O)c(F)c2)n1 [Compound D7, 5-(2-fluoro-4-(1-methyl-1H-pyrazol-3-yl)benzyl)-N-((1S,2S)-2-hydroxycyclohexyl)-4-oxo-4,5-dihydrofuro[3,2-c]pyridine-7-carboxamide]
> 10 µM | < 5% | 5.13 µM | 32% | Cn1ccc(-c2ccc(Cn3cc(C(=O)N[C@H]4CCC[C@@H]4O)c4occc4c3=O)c(F)c2)n1 [Compound D8, 5-(2-Fluoro-4-(1-methyl-1H-pyrazol-3-yl)benzyl)-N-((1S,2S)-2-hydroxycyclopentyl)-4-oxo-4,5-dihydrofuro[3,2-c]pyridine-7-carboxamide]
> 10 µM | < 5% | 3.09 µM | 80% | Cn1ccc(-c2ccc(Cn3cc(C(=O)N[C@H]4CCCCC[C@@H]4O)c4occc4c3=O)c(F)c2)n1 [Compound D9, 5-(2-fluoro-4-(1-methyl-1H-pyrazol-3-yl)benzyl)-N-((1S,2S)-2-hydroxycycloheptyl)-4-oxo-4,5-dihydrofuro[3,2-c]pyridine-7-carboxamide]
